Measurements reported in patent US12245998B2 (NACUITY PHARMACEUTICALS, INC., priority 2019, dated 2025).

Tests used:
[1] = Rheology (elasticity, viscosity) of concentrated HBE airway mucus, cone-and-plate rheometer; parameters: species or system human; conditions: for elasticity compared with the DTT group / viscosity compared with the DTT group: 200 mM NACA and NAC versus 20 mM DTT, all p<0.05
Description: In the Example 1, the inventors assessed the ability of NACA to reduce the rheological properties of a concentrated (cystic fibrosis-like) mucus, making it more flowable. In this phase, NACA was compared to both a classical clinical reducing agent (N-acetylcysteine; NAC) as well as a potent laboratory reducing agent (Dithiothreitol; DTT). The studies in this phase of the project were performed at a single dose, 200 mM for the mono-thiols NACA and NAC and 20 mM for the di-thiol DTT. Methods. In this study, a single preparation of human bronchial epithelial (HBE) airway mucus at 5.4% solids (i.e., wet-to-dry ratio) was utilized as the test mucus sample. This sample was thawed on ice and split into 4 separate groups. The appropriate amount of test agent (see above) was added to each mucus sample: (1) PBS (vehicle control), (2) NACA, (3) NAC, and (4) DTT. Samples were incubated for 60 minutes at 37ÀöC prior to analysis. Note, the final mucus concentration of each sample (after test agent addition) was ˜4.9% solids. The viscoelastic (i.e., rheological) properties of each mucus preparation was made using a cone-and-plate rheometer (DH3; TA Instruments). For each study, 100 ? of sample was loaded onto the rheometer. Stress controlled sweeps (for viscous and elastic modulus determination) were performed over frequencies from 10-2-102 Hz. To assess yield stress, creep-recovery studies were performed at stresses from 0.05 to 1.5 Pa. Next, the cohesive stress of each sample (i.e., how much force it takes to tear the mucus) was obtained using a peel tester (see Button et. al, PNAS 2018). Studies here were performed at a peel rate of 1 mm/sec.

[2] = Cohesive strength of HBE airway mucus, peel tester; parameters: species or system human; conditions: 200 mM NACA and NAC, 20 mM DTT
Description: In the Example 1, the inventors assessed the ability of NACA to reduce the rheological properties of a concentrated (cystic fibrosis-like) mucus, making it more flowable. In this phase, NACA was compared to both a classical clinical reducing agent (N-acetylcysteine; NAC) as well as a potent laboratory reducing agent (Dithiothreitol; DTT). The studies in this phase of the project were performed at a single dose, 200 mM for the mono-thiols NACA and NAC and 20 mM for the di-thiol DTT.
Methods. In this study, a single preparation of human bronchial epithelial (HBE) airway mucus at 5.4% solids (i.e., wet-to-dry ratio) was utilized as the test mucus sample. This sample was thawed on ice and split into 4 separate groups. The appropriate amount of test agent (see above) was added to each mucus sample: (1) PBS (vehicle control), (2) NACA, (3) NAC, and (4) DTT. Samples were incubated for 60 minutes at 37ÀöC prior to analysis. Note, the final mucus concentration of each sample (after test agent addition) was ˜4.9% solids.
The viscoelastic (i.e., rheological) properties of each mucus preparation was made using a cone-and-plate rheometer (DH3; TA Instruments). For each study, 100 ? of sample was loaded onto the rheometer. Stress controlled sweeps (for viscous and elastic modulus determination) were performed over frequencies from 10-2-102 Hz. […]

mucins = conditions: 20 mM; cited from earlier work
[3] = humans, oral dose of 600 mg; cited from earlier work
[4] = normal airway surface, pH of 7.0-7.2; cited from earlier work
[5] = maximum tolerated doses (20%); cited from earlier work
[6] = oral, treatment periods of approximately 12-24 weeks, patients with chronic bronchitis; cited from earlier work
[7] = while intubated; cited from earlier work
[8] = cited from earlier work
WT mice = conditions: mouse, in vivo; cited from earlier work
[9] = target: T1, glutamate cysteine ligase (GCL, EC 6.3.2.2) (Homo sapiens, UniProt P48506); conditions: read-out: Km of GCL for substrate; cited from earlier work
T1 sequence (P48506 1-637): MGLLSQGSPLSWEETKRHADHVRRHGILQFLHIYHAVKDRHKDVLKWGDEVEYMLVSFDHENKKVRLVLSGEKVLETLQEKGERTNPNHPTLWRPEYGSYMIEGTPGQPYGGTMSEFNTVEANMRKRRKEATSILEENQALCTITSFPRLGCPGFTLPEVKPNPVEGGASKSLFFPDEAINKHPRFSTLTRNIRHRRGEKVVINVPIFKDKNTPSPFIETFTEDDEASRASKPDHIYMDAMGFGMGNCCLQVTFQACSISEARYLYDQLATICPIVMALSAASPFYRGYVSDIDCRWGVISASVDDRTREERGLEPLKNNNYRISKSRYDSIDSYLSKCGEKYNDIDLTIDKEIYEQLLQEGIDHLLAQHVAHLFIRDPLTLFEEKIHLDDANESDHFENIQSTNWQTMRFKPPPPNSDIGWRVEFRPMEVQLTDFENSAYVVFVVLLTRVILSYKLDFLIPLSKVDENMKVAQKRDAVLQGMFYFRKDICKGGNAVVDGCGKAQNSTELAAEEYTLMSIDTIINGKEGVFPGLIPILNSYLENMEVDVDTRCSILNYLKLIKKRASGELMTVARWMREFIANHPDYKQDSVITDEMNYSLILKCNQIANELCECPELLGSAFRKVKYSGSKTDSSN
T1 sequence (P48507 1-274 partner): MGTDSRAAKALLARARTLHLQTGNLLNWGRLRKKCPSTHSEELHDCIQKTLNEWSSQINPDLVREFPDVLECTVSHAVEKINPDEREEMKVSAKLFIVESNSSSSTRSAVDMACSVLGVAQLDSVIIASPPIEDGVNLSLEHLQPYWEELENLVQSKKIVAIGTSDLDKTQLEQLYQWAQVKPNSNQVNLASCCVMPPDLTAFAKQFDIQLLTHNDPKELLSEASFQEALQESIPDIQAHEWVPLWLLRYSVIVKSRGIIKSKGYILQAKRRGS

CC(=O)N[C@@H](CS)C(N)=O
elasticity compared with the DTT group [1]: significantly less than the DTT group | viscosity compared with the DTT group [1]: significantly less than the DTT group | elasticity and viscosity, NACA compared with NAC ([1]; 200 mM dose): no significant difference | reducing the viscoelasticity of mucus ([1]; 200 mM dose): very effective | reduction of cohesive strength of mucus ([2]; peel rate 1 mm/sec): very effective

O[C@H](CS)[C@H](O)CS (racemic) [DTT, Dithiothreitol]
cohesive strength, comparison between test agents [2]: slightly better than NAC and NACA | reduction of mucins (mucins): fully reduce mucins

CC(=O)N[C@@H](CS)C(=O)O [NAC, N-acetyl-L-cysteine]
elasticity compared with the DTT group [1]: significantly less than the DTT group | viscosity compared with the DTT group [1]: significantly less than the DTT group | time after administration at which no NAC is detectable [3]: 10 to 12 h | fraction in the inactive protonated form [4]: 99% | mucus reduction in CF subjects [5]: did not produce mucus reduction | risk of adverse effects compared with placebo [6]: without increasing the risk of adverse effects | risk of exacerbations compared with placebo [6]: reduces the risk of exacerbations | symptoms compared with placebo [6]: improves symptoms | efficacy for atelectasis/mucus plugging [7]: ineffective | removal of mucus plugs ([8]; high concentrations, delivered topically via bronchoscopy, subjects with CF or tracheostomies): could remove mucus plugs | lung function following inhalation treatment ([8]; inhalation, high NAC concentrations (20%, 1,200 mOsm) aerosolized): modest improvements in lung function | airway toxicity in WT mice (WT mice): induced epithelial cell damage and acute neutrophilic responses

N[C@@H](CS)C(=O)O [cysteine, L-cysteine]
Km [9]: 100 to 300 µM

B1: Dornasealfa: mucoactive agent reviewed for adults with acute lung conditions (protein, UniProt P24855 23-282, looked up)
Deoxyribonuclease-1: LKIAAFNIQTFGETKMSNATLVSYIVQILSRYDIALVQEVRDSHLTAVGKLLDNLNQDAPDTYHYVVSEPLGRNSYKERYLFVYRPDQVSAVDSYYYDDGCEPCGNDTFNREPAIVRFFSRFTEVREFAIVPLHAAPGDAVAEIDALYDVYLDVQEKWGLEDVMLMGDFNAGCSYVRPSQWSSIRLWTSPTFQWLIPDSADTTATPTHCAYDRIVVAGMLLRGAVVPDSALPFNFQAAYGLSDQLAQAISDHYPVEVMLK
efficacy for atelectasis/mucus plugging [7]: ineffective
